Data as given in patent US20020076736A1, “Methods of affecting laminin 5 processing” (priority 2000, published 2002).
Entries after “also recorded” stand apart in the source; their conditions may differ.

Experiments:
MMP-1 = biological target: T1, MMP-1 (Homo sapiens, UniProt P03956); assay: Inhibition of MMP-1 activity; type: biochemical
T1 sequence (P03956 100-469): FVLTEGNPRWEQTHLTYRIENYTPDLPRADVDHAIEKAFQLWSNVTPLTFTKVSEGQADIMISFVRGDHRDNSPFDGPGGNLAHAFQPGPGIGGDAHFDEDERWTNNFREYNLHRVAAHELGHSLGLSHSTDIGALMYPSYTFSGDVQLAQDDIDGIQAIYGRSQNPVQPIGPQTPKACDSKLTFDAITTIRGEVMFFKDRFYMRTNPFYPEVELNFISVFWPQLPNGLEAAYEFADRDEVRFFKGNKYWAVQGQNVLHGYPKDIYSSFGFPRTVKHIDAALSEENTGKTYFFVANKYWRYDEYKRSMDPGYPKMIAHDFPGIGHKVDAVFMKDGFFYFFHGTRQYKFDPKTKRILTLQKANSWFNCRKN

MMP-2 = biological target: T2, MMP-2 (Homo sapiens, UniProt P08253); assay: Inhibition of MMP-2 activity; type: biochemical
T2 sequence (P08253 110-660): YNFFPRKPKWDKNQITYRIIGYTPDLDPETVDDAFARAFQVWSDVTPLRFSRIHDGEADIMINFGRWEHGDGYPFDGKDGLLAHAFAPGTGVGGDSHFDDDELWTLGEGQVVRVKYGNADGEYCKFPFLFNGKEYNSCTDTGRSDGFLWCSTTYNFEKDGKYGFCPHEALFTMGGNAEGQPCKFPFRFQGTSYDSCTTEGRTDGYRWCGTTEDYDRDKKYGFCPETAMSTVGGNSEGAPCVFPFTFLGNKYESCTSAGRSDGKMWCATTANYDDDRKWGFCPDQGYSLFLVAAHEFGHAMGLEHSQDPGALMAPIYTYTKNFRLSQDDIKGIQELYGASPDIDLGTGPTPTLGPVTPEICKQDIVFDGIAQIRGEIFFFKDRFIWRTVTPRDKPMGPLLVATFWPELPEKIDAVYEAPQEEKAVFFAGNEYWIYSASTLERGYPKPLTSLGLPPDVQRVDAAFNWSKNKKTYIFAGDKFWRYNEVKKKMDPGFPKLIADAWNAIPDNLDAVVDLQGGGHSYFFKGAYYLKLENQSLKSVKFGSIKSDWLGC

MMP-9 = MMP-9 (Homo sapiens, UniProt P14780); assay: Inhibition of MMP-9 activity; type: biochemical
MT1-MMP = MT1-MMP (Homo sapiens, UniProt P50281); assay: Inhibition of MT1-MMP activity; type: biochemical
cultured cells = assay: Toxicity to cultured cells; type: cell-based
[1] = tested on: laminin 5 processing in normal human keratinocytes; assay: Laminin 5 processing in keratinocyte cultures, western blot; type: cell-based
Procedure: Each of the inhibitors was added to freshly plated cultures of normal human keratinocytes. After 16 hours, laminin 5 was extracted from cultures and analyzed by western blot using a polyclonal antibody to laminin 5.

[2] = tested on: laminin 5 processing in normal immortalized keratinocytes (NIK); assay: Laminin 5 processing in normal immortalized keratinocytes, western blot; type: cell-based; conditions: 1, 5, 8 μM; 48 hours
[3] = tested on: laminin 5 processing in squamous cell carcinoma cell line SCC-15; assay: Laminin 5 processing in SCC-15 cells, western blot; type: cell-based; conditions: 1, 5, 10 μM; 48 hours
Procedure: (§1) This is shown by western blot analysis. […] (FIG. 13: lane 1, control; lane 2, 1 μM; lane 3, 5 μM; lane 4, 10 μM.)

[4] = tested on: laminin 5 processing in squamous cell carcinoma cell line SCC-25; assay: Laminin 5 processing in SCC-25 cells, western blot; type: cell-based, human; conditions: 1, 5, 10 μM; 48 hours
Procedure: as §1

mTll-1 = mTll-1 (Homo sapiens, UniProt O43897); assay: Cleavage of unprocessed laminin 5 matrix by mTll-1, western blot; type: biochemical; conditions: 10 μM
Procedure: (§2) The processing of laminin 5 by various BMP-1 related proteins was examined. […] The cells were then removed from the culture dish by 20 mM ammonium sulfate, the dish was washed, and the matrix was incubated in increasing amounts of each BMP-1 related protein. After proteolytic digestion, the matrix was extracted and examined by western blot analysis. […] BMP-1 and mTLL-2 cleaved the γ2 chain of laminin 5.

mTll-2 = mTll-2 (Homo sapiens, UniProt Q9Y6L7); assay: Cleavage of unprocessed laminin 5 matrix by mTll-2, western blot; type: biochemical; conditions: 10 μM
Procedure: as §2

keratinocytes = assay: Keratinocyte migration, Boyden chambers; type: cell-based
Procedure: Compounds 1 and 2 were used to examine the functional effects of processing by BMP-1 related proteins on keratinocyte migration. […] Keratinocytes were analyzed for migration in Boyden chambers in the presence of increasing amounts of the inhibitors. […] (Koivunen et al. (1999) Nature Biotechnology 17:768-774.)

[5] = tested on: normal human keratinocytes; assay: Scratch assay, normal human keratinocytes; type: cell-based; conditions: 10 μM; 24 hours
Procedure: (§3) To approximate in vivo epidermal cell migration, during which epidermal cells move as sheets, scratch assays were utilized. Normal human keratinocytes were plated to confluence in the presence of either of the inhibitors (10 μM) or DMSO, and the cells allowed to attach for 6 hours. A 2 mm scratch was produced in the culture, marked, and the migration of the cells studied for the following 24 to 48 hours. […] (FIG. 7B.) When scratched plates were subsequently washed after 24 hours of incubation with the inhibitors, and incubated for an additional 24 hours in the absence of inhibitors, normal migration equivalent to that of the control conditions was noted.

[6] = tested on: squamous carcinoma cell line SCC-25; assay: Scratch assay, SCC-25; type: cell-based, human
Procedure: as §3
In addition, squamous carcinoma cell line SCC-25 (ATCC Number CRL-1628) was examined by the described scratch assay using the inhibitors. […] Washing out of the inhibitors for an additional 48 hour time period restored normal SCC migration.
(§4) A dose-dependent study of Compound 2 was performed on keratinocyte cultures. In these assays, a scratch was placed in a confluent layer of cells, and the migration of the cells into the scratched area was assessed after 48 hours. In the absence of inhibitor, normal immortalized keratinocytes (NIK) migrated into the scratch area.

[7] = tested on: normal immortalized keratinocytes (NIK); assay: Scratch assay, normal immortalized keratinocytes; type: cell-based
Procedure: as §4

[8] = tested on: squamous cell carcinoma cell line SCC-15; assay: Scratch assay, SCC-15; type: cell-based; conditions: 1, 5, 10 μM; 48 hours
squamous carcinoma cells = assay: Migration of squamous carcinoma cells (general statement); type: cell-based
normal keratinocytes = assay: Keratinocyte detachment by trypsin; type: cell-based; conditions: cultured 24 hours with compound; 0.05% trypsin
Description: The mode of attachment of keratinocytes to processed and unprocessed laminin 5 was examined by two methods. […] (FIG. 20.)

SCC-25 cells = assay: Matrigel invasion chamber, SCC-25; type: cell-based, human; conditions: 5 μM; 24 hours
Procedure: (§5) The assay is a standard in vitro measure of tumor cell invasion. Tumor cells are plated atop a layer of fabricated basement membrane and allowed to migrate over the course of 24 hours towards conditioned 3T3 medium, which contains a chemo-attractant, located in a lower chamber. […] (FIG. 25.)

SCC-15 cells = assay: Matrigel invasion chamber, SCC-15; type: cell-based; conditions: 5 μM; 24 hours
Procedure: as §5

SiHa cells = assay: Matrigel invasion chamber, SiHa; type: cell-based; conditions: 24 hours; cell line unable to produce laminin 5
Procedure: as §5

SCC-25 = assay: MTT toxicity assay, SCC-25; type: cell-based, human; conditions: 24 hour
SCC-15 = assay: MTT toxicity assay, SCC-15; type: cell-based; conditions: 24 hour
SiHa = assay: MTT toxicity assay, SiHa; type: cell-based; conditions: 24 hour

Chain of mTll-2 (Q9Y6L7 150-1015): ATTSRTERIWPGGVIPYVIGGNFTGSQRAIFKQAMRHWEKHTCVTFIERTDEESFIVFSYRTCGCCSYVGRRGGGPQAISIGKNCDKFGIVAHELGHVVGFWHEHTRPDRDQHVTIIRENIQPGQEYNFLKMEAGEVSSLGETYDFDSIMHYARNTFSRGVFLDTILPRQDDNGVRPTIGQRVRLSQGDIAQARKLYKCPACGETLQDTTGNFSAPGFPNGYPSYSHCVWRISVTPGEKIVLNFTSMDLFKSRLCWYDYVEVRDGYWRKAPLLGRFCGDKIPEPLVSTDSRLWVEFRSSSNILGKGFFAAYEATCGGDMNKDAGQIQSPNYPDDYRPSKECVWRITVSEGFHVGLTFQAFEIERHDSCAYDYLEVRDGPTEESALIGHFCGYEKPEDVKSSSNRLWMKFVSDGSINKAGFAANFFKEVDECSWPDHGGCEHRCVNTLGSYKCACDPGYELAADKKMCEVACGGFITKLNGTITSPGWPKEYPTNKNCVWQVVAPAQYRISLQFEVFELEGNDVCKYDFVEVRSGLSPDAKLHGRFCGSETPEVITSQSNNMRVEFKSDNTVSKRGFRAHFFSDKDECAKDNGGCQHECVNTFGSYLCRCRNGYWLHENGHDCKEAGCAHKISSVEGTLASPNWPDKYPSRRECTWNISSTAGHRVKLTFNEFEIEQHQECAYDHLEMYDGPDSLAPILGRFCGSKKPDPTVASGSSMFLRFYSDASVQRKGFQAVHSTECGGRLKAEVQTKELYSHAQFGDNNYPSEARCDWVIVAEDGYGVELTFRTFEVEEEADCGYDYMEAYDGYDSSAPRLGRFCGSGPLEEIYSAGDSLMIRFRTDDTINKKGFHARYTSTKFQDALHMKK
Chain of MMP-9 (P14780 94-707, species assumed): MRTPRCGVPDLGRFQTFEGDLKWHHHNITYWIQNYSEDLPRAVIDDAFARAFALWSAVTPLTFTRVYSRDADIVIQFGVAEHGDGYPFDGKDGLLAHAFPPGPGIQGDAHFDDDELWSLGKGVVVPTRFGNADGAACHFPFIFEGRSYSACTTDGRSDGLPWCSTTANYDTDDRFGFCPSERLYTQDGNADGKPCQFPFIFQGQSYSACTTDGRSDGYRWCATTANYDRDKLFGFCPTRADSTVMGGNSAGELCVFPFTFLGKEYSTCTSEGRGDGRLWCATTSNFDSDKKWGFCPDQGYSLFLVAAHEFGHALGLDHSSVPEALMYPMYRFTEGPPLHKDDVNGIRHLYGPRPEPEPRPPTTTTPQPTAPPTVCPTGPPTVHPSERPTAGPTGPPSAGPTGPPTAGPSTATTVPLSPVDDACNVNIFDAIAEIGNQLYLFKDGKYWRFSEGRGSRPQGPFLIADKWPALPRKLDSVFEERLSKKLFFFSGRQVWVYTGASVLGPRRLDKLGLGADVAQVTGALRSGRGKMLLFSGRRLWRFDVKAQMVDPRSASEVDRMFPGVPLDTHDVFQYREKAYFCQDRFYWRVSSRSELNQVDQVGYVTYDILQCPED
Chain of mTll-1 (O43897 148-1013): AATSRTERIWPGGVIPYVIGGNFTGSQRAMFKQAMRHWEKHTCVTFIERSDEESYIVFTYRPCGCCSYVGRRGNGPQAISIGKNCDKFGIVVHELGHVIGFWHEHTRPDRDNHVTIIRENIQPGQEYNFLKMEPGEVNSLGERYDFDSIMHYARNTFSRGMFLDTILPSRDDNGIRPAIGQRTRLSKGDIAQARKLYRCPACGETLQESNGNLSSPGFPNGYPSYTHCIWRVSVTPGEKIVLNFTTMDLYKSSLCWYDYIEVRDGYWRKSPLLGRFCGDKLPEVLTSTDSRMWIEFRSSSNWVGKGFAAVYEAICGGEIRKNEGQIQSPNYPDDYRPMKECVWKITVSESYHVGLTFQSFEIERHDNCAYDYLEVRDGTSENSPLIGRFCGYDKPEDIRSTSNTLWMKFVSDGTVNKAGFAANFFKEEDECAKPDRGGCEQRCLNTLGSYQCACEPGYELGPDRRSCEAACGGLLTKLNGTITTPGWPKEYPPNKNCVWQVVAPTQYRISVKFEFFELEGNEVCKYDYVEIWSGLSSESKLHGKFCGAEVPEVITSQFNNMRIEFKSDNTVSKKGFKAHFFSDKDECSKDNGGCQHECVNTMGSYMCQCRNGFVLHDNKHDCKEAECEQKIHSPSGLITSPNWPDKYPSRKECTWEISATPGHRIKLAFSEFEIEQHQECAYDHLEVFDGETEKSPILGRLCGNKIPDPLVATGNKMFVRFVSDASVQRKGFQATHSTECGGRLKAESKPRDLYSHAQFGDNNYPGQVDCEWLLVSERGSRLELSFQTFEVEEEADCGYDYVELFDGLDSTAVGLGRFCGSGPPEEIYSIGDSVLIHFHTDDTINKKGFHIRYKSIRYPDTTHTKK
Procedure for KLASV cells: To allow for attachment to the tissue culture dish, KLASV cells were plated in tissue culture wells previously coated with type I collagen.

`COc1ccc(CCN(CCC(=O)NO)S(=O)(=O)c2ccc(NC(=O)NCc3ccccc3)cc2)cc1` [Compound 2] was tested, and the “inhibition of activity of MMP-1” value (MMP-1) was “no inhibition”, the “inhibition of activity of MMP-2” value (MMP-2) was “no inhibition” and the “inhibition of activity of MMP-9” value (MMP-9) was “no inhibition”. The “inhibition of activity of MT1-MMP” value (MT1-MMP) was “no inhibition”, the “toxicity to cultured cells at 100 times inhibitory levels” value (cultured cells; 100 times the concentration which inhibited BMP-1 activity) was “nontoxic” and the “toxic effect on cells” value (cultured cells; cell culture) was “nontoxic; also recorded: non-toxic; also recorded: no toxic effect on cells”. The “processing of laminin 5 deposited by cultured keratinocytes” value ([1]; 10 μM) was “prevented processing of laminin 5”, the “level of expression of laminin 5” value ([1]; 16 hours, western blot) was “did not significantly change” and the “processing of the α3 and γ2 chains of laminin 5” value ([1]; 16 hours, western blot) was “completely inhibited”. The “laminin 5 α3 chain and γ2 chain processing, dose dependence” value ([1]; dose-dependent manner) was “inhibited laminin 5 α3 chain and γ2 chain processing”, the “processing of laminin 5 in NIK, dose dependence” value [2] was “dose-dependent effect” and the “processing of laminin 5 in SCC-15, dose dependence” value [3] was “dose-dependent effect”. The “processing of laminin 5 in SCC-25, dose dependence” value [4] was “dose-dependent effect”, the “cleavage of laminin 5 α3 chain by mTLL-1” value (mTll-1) was “inhibited cleavage of laminin 5 α3 chain” and the “cleavage of laminin 5 α3 chain by mTLL-2” value (mTll-2) was “inhibited cleavage of laminin 5 α3 chain”. The “cleavage of laminin 5 γ2 chain by mTLL-2” value (mTll-2) was “inhibited cleavage of laminin 5 γ2 chain”, the “inhibition of keratinocyte migration” value (keratinocytes) was “potently inhibit” and the “keratinocyte migration in transwells or over a scratch” value (keratinocytes; 10 μM) was “almost complete lack of migration”. For the same compound, the “inhibition of keratinocyte migration, dose dependence” value (keratinocytes; Boyden chamber and scratch assays) was “inhibition of KC migration in a dose-dependent manner”, the “dose required to achieve nearly complete inhibition of migration” value (keratinocytes; Boyden chambers) was 10 µM and the “migration of keratinocytes into the scratch” value [5] was “almost a complete lack of migration”. The “SCC-25 migration response compared with keratinocytes” value ([6]; 10 μM) was “identical response”, the “inhibition of SCC cell migration on type I collagen coated versus non-coated dishes” value ([6]; 10 μM, 48 hr) was “equally effective at inhibiting cell migration” and the “SCC-25 migration into the scratch” value ([6]; 10 μM, up to 48 hours) was “effective at preventing SCC-25 migration”. For the same compound, the “migration of SCC-25 into the scratch area, dose dependence” value ([6]; 1, 5, 10 μM, 48 hours) was “dose-dependent effect”, the “inhibition of keratinocyte migration on type I collagen coated versus non-coated dishes” value ([7]; 10 μM, 48 hr) was “equally effective at inhibiting cell migration” and the “migration of NIK into the scratch area, dose dependence” value ([7]; 1, 5, 8 μM, 48 hours) was “dose-dependent inhibition of migration”. The “migration of SCC-15 into the scratch area, dose dependence” value [8] was “dose-dependent effect”, the “inhibition of migration of squamous carcinoma cells” value (squamous carcinoma cells) was “potently inhibit” and the “resistance of treated cells to trypsin detachment” value (normal keratinocytes) was “more resistant to trypsin treatment”. For the same compound, the “invasion of SCC-25 cells” value (SCC-25 cells) was “able to inhibit the invasion”, the “invasion of SCC-15 cells” value (SCC-15 cells) was “able to inhibit the invasion” and the “invasion of SiHa cells” value (SiHa cells) was “not able to inhibit the invasion”. The “MTT toxicity, SCC-25” value (SCC-25) was “little or no toxicity”, the “MTT toxicity, SCC-15” value (SCC-15) was “little or no toxicity” and the “MTT toxicity, SiHa” value (SiHa) was “little or no toxicity”. For the same compound, the “migration of KLASV cells” value (KLASV cells; type I collagen coated dishes, 10 μM, 48 hr) was “not inhibited” and the “migration of KLASV cells into the scratch” value (KLASV cells; type I collagen coated wells, 24 hours, compared to non-treated control) was “significant migration into the scratch”.
